Results as given in patent US20260242416A1, “ANTIMICROBIAL PEPTIDES” (priority 2023, published 2026).
Converted amounts (≈) assume the structure as drawn. Where a SMILES comes first, the peptide text is derived from it.

Assays:
[1] = system: S. aureus ATCC 29213; type: cell-based, Staphylococcus aureus; conditions: ATCC 29213
How it was run: (§1)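 CLSI broth microdilution adapted for cationic peptides, in Mueller-Hinton broth, inoculum 2-8×10^5 cfu/mL. Peptides serially diluted from 128 to 0.5 μg/mL in polypropylene plates, incubated 20-24 h at 37° C. MIC = lowest concentration without visible growth.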

[2] = system: E. coli ATCC 25922, Salmonella Enteritidis, S. aureus ATCC 29213; experiment: Broth microdilution, panel result (at least one / all strains), Example 2; type: cell-based; design: key to inhibitory activity (asterisk): *Indicates inhibitory activity; conditions: Table 14; against at least one of E. coli ATCC 25922, Salmonella Enteritidis, S. aureus ATCC 29213
How it was run: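 CLSI broth microdilution adapted for cationic peptides, in MHB with a final inoculum of 2-8×10^5 cfu/mL in polypropylene plates. Peptides were serially diluted from 128 down to 0.5 μg/mL and incubated 20-24 h at 37° C. MIC is the lowest concentration with no visible growth.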

[3] = system: E. coli ATCC 25922; type: cell-based, Escherichia coli; conditions: ATCC 25922
How it was run: as §1

[4] = system: Salmonella enterica serovar Enteritidis (human clinical isolate); type: cell-based; conditions: serovar Enteritidis (human clinical isolate)
How it was run: as §1

MIC (ug/mL) S. aureus [1] [µg/mL] | MIC (ug/mL) E. coli [3] [µg/mL] | MIC (ug/mL) S. Enteritidis [4] [µg/mL] | SMILES | inhibitory activity (asterisk) [2]
> 128 | 64 to 128 | > 128 | CC[C@H](C)[C@H](NC(=O)CN)C(=O)N[C@@H](CC(C)C)C(=O)N[C@@H](CO)C(=O)NCC(=O)N[C@@H](CC(C)C)C(=O)N[C@@H](CC(C)C)C(=O)NCC(=O)N[C@@H](C)C(=O)NCC(=O)N[C@@H](CCCCN)C(=O)N[C@@H](CCCCN)C(=O)N[C@H](C(=O)N[C@H](C(=O)N[C@@H](CS)C(=O)NCC(=O)N[C@@H](CC(C)C)C(=O)N[C@@H](CO)C(=O)NCC(=O)N[C@@H](CCSC)C(=O)N[C@@H](CS)C(=O)O)C(C)C)[C@@H](C)CC [RaOm2] (H-GILSGLLGAGKKIVCGLSGMC-OH; N-terminus and C-terminus assumed) | 629.* GILSGLLGAGKKIVCGLSGMC
64 (≈ 34.5 µM) | 8 to 16 | 32 to 64 | CC[C@H](C)[C@H](NC(=O)CN)C(=O)N[C@@H](Cc1ccccc1)C(=O)N[C@@H](CO)C(=O)N[C@@H](CC(C)C)C(=O)N[C@H](C(=O)N[C@@H](CCCCN)C(=O)NCC(=O)N[C@@H](C)C(=O)N[C@@H](C)C(=O)N[C@@H](CCCCN)C(=O)N[C@H](C(=O)N[C@H](C(=O)N[C@@H](C)C(=O)N[C@@H](CCCCN)C(=O)NCC(=O)N[C@@H](CC(C)C)C(=O)NCC(=O)N[C@@H](CCCCN)C(=O)O)C(C)C)C(C)C)[C@@H](C)CC [RaOm3, GIFSLIKGAAKVVAKGLGK] (H-GIFSLIKGAAKVVAKGLGK-OH; N-terminus and C-terminus assumed) | 1099.* GIFSLIKGAAKVVAKGLGK
64 to 128 | 4 to 8 | 32 (≈ 15.7 µM) | CC(C)C[C@H](NC(=O)CN)C(=O)N[C@@H](CC(C)C)C(=O)NCC(=O)N[C@@H](CCCCN)C(=O)N[C@H](C(=O)N[C@@H](CC(C)C)C(=O)NCC(=O)N[C@H](C(=O)NCC(=O)N[C@@H](CCCCN)C(=O)N[C@@H](CCCCN)C(=O)N[C@H](C(=O)N[C@@H](CC(C)C)C(=O)N[C@@H](CS)C(=O)NCC(=O)N[C@H](C(=O)N[C@@H](CO)C(=O)NCC(=O)N[C@@H](CCCNC(=N)N)C(=O)N[C@@H](CS)C(=O)O)C(C)C)C(C)C)C(C)C)C(C)C [RaOm4] (H-GLLGKVLGVGKKVLCGVSGRC-OH; N-terminus and C-terminus assumed) | 628.* GLLGKVLGVGKKVLCGVSGRC
64 to 128 | 8 to 16 | > 128 | CC[C@H](C)[C@H](NC(=O)[C@H](CC(C)C)NC(=O)[C@H](CCCCN)NC(=O)[C@H](CC(C)C)NC(=O)CNC(=O)CNC(=O)[C@H](CCCCN)NC(=O)[C@@H](NC(=O)[C@H](CC(C)C)NC(=O)[C@H](CCCCN)NC(=O)CNC(=O)[C@@H](NC(=O)[C@H](CC(C)C)NC(=O)CN)C(C)C)C(C)C)C(=O)NCC(=O)N[C@@H](Cc1c[nH]cn1)C(=O)N[C@H](C(=O)N[C@@H](C)C(=O)N[C@@H](CC(N)=O)C(=O)NCC(=O)O)C(C)C [RaSi1] (H-GLVGKLVKGGLKLIGHVANG-OH; N-terminus and C-terminus assumed) | 2.* GLVGKLVKGGLKLIGHVANG
128 (≈ 59.4 µM) | 64 to 128 | > 128 | CC[C@H](C)[C@H](NC(=O)[C@H](CCCNC(=N)N)NC(=O)[C@H](CCCNC(=N)N)NC(=O)[C@@H]1CCCN1C(=O)[C@H](CS)NC(=O)[C@H](CS)NC(=O)[C@H](Cc1ccc(O)cc1)NC(=O)[C@H](CS)NC(=O)[C@H](CC(C)C)NC(=O)[C@@H](NC(=O)[C@H](CCCNC(=N)N)NC(=O)[C@@H](NC(=O)[C@H](Cc1ccccc1)NC(=O)[C@H](C)N)C(C)C)[C@@H](C)CC)C(=O)N[C@@H](CCCCN)C(=O)N[C@@H](CCCNC(=N)N)C(=O)N[C@@H](CCCNC(=N)N)C(=O)O [TeRu2, AFVRILCYCCPRRIKRR] (H-AFVRILCYCCPRRIKRR-OH; N-terminus and C-terminus assumed) | 994.* AFVRILCYCCPRRIKRR
